From PubChem BioAssay (NCI)
Values joined by “and” are separate entries in the source; they are usually repeats but may differ in a detail not shown here. Equal values may be shown once.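 These data come from cells grown in 96-well plates and exposed to compound for 48 hours at five concentrations. GI50 marks 50% less growth. At the TGI there is no net growth.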

Assays:
Assay in all cases: NCI tumour cell line growth inhibition, 48 h
HCC-2998 colon = tested on: HCC-2998 colon
UACC-257 melanoma = tested on: UACC-257 melanoma
RXF 393 renal = tested on: RXF 393 renal
ACHN renal = tested on: ACHN renal
SNB-19 CNS = tested on: SNB-19 CNS
M14 melanoma = tested on: M14 melanoma
PC-3 prostate = tested on: PC-3 prostate
MCF7 breast = tested on: MCF7 breast
A498 renal = tested on: A498 renal
OVCAR-5 ovarian = tested on: OVCAR-5 ovarian

Row | SMILES | GI50 (HCC-2998 colon) | TGI (HCC-2998 colon) | GI50 (UACC-257 melanoma) | TGI (UACC-257 melanoma) | GI50 (RXF 393 renal) | TGI (RXF 393 renal) | GI50 (ACHN renal) | TGI (ACHN renal) | GI50 (SNB-19 CNS) | TGI (SNB-19 CNS) | GI50 (M14 melanoma) | TGI (M14 melanoma) | GI50 (PC-3 prostate) | TGI (PC-3 prostate) | GI50 (MCF7 breast) | TGI (MCF7 breast) | GI50 (A498 renal) | TGI (A498 renal) | GI50 (OVCAR-5 ovarian) | TGI (OVCAR-5 ovarian)
1 | O=C(O)COc1ccc2c(=O)c3sc4c(=O)c5ccccc5c(=O)c4c3c(=O)c2c1 | 11.2 µM | 26.7 µM | 16.2 µM | 34.7 µM | 12.6 µM | 28.1 µM | 23 µM | > 100 µM | 7.51 µM | 23.7 µM | 2.69 µM | 7.53 µM | 26.8 µM | > 100 µM | 5.51 µM | 25.8 µM | 14.7 µM | 28.1 µM | 17.7 µM | 34.3 µM
2 | COc1ccc(OC)c2c1[nH]c(=O)c1c3ccccc3cn21 | 1.34 µM | 2.68 µM | 2 µM | 3.73 µM | 1.5 µM | 3.01 µM | 1.11 µM | 2.37 µM | 1.64 µM | 3.4 µM | 1.79 µM | 3.37 µM | 1.39 µM | 4.21 µM | 0.0727 µM | 1.98 µM | 1.77 µM | 3.2 µM | 1.87 µM | 3.69 µM
3 | Cn1cc(C2=C(c3ccc(N)cc3)C(=O)NC2=O)c2ccccc21 | > 25 µM | > 25 µM | > 25 µM | > 25 µM | 4.85 µM | > 22.9 µM | 13.4 µM | > 25 µM | > 25 µM | > 25 µM | > 20.4 µM | > 25 µM | 17 µM | > 25 µM | 13.7 µM | > 25 µM | 3.63 µM | 12 µM | > 25 µM | > 25 µM
4 | Cc1cc(C)c2c(n1)sc1c(Nc3ccc(Cl)cc3)ncnc12 | 7.4 µM | > 100 µM | 0.107 µM | > 100 µM | 0.0195 µM | 0.0898 µM | < 0.01 µM | > 51.2 µM | < 0.01 µM | > 100 µM | < 0.01 µM |  | 0.199 µM | > 100 µM | < 0.01 µM | > 100 µM | < 0.0133 µM | 0.491 µM | < 0.0125 µM | > 100 µM
5 | O=C(Nc1ccc(Nc2ccncc2)cc1)c1ccc([N+](=O)[O-])cc1 | 2.77 µM | 12.3 µM | 10.5 µM | 26.2 µM | 3.35 µM | 12.4 µM | 4.62 µM | 19.7 µM | 4.47 µM | 20.7 µM | 7.18 µM | 26.9 µM | 13.7 µM | > 56.6 µM | 3.5 µM | 20.5 µM | 2.43 µM | 9 µM | 9.82 µM | > 44.7 µM
6 | COc1ccccc1/C=N\N/C(N)=N\N=C\c1ccccc1OC | 1.03 µM | 11.3 µM | 4.29 µM | > 23.6 µM | 0.265 µM | > 100 µM | 2.82 µM | > 53.1 µM | 0.376 µM | 27.7 µM | 0.266 µM | 3.13 µM | 0.476 µM | > 66.2 µM | 0.254 µM | 4.36 µM | 0.372 µM | 19.4 µM | 3.36 µM | > 100 µM
7 | COc1cccc2c1C(=O)c1c(O)c3c(c(O)c1C2=O)C[C@@](O)(C(=O)CO)C[C@@H]3OC1CC(N)CC(C)O1 (some centres undefined) | 0.117 µM | 0.429 µM and 0.619 µM | 0.103 µM | 0.33 µM and 0.195 µM | 0.122 µM and 0.0806 µM | 0.298 µM and 0.369 µM | 0.0175 µM | 0.289 µM | 0.0391 µM and 0.0413 µM | 2.31 µM and 3.06 µM | 0.036 µM | 0.278 µM and 0.218 µM | 0.0558 µM | 0.33 µM and 0.246 µM | 0.00536 µM | 3.71 µM and 1.93 µM | 0.111 µM and 0.0375 µM | 0.366 µM and 0.165 µM | 0.116 µM | 0.775 µM and 0.799 µM
